Data taken from patent US11464749B2, “Bismuth-thiol compositions and methods of use” (Microbion Corporation, priority 2018, dated 2022).
Read-outs that look alike come from different tables or passages of the source.

What was measured:
Escherichia coli = assay: Broth microdilution MIC (Example 11)
Klebsiella pneumoniae [1] = assay: Broth microdilution MIC (Example 11)
Enterobacter cloacae = assay: Broth microdilution MIC (Example 11); details: ATCCBAA2468
Pseudomonas aeruginosa [2] = assay: Broth microdilution MIC (Example 11); details: Pseudomonas aeruginosa
Acinetobacter baumannii [3] = assay: Broth microdilution MIC (Example 11); details: Acinetobacter baumannii
E. faecalis = assay: Broth microdilution MIC (Example 11); details: Enterococcus faecalis, VRE, VRE Lev^R Cip^R Ery^R
S. pneumoniae = assay: Broth microdilution MIC (Example 11); details: Streptococcus pneumoniae
S. pyogenes = assay: Broth microdilution MIC (Example 11); details: Streptococcus pyogenes
S. agalactiae = assay: Broth microdilution MIC (Example 11); details: Streptococcus agalactiae
Klebsiella pneumoniae [4] = assay: Broth microdilution MIC (Example 12); details: Klebsiella pneumoniae
Pseudomonas aeruginosa [5] = assay: Broth microdilution MIC (Example 12); details: Pseudomonas aeruginosa
Acinetobacter baumannii [6] = assay: Broth microdilution MIC (Example 12); details: Acinetobacter baumannii
[7] = tested on: Pseudomonas aeruginosa strain PA01; assay: Bacterial killing curves with and without CF patient sputum; set-up: time to sterilization below the limit of detection: dose or concentration left out as unconfirmed

Compound `CC(S)C(C)S.[Bi]` (stereo not drawn) [BisBDT, bismuth-2,3-butanedithiol] has an MIC (Escherichia coli; ATCC25922, E. coli MMX 102 (ATCC 25922), QC) of 0.5 mg/L, an MIC (Escherichia coli; ATCCBAA2469, E. coli MMX 5980 (ATCC BAA-2469), NDM-1, Lev^R, MEM^R, CAZ^R, Gm^R) of 1 mg/L and an MIC (Escherichia coli; E. coli MMX 8423, ESBL, Lev^R, CAZ^R, Gm^R) of 1 mg/L. The MIC (Escherichia coli; E. coli MMX 8424, ESBL, CAZ^R) was 0.5 mg/L, the MIC (Escherichia coli; E. coli MMX 8425, ESBL, Lev^R, CAZ^R, Gm^R) was 1 mg/L and the MIC (Klebsiella pneumoniae [1]; K. pneumoniae MMX 4622, KPC-2, MEM^R, CAZ^R) was 1 mg/L. The MIC (Klebsiella pneumoniae [1]; K. pneumoniae MMX 4623, KPC-2, MEM^R, CAZ^R, GM^R) was 0.5 mg/L, the MIC (Klebsiella pneumoniae [1]; K. pneumoniae MMX 4653, KPC-3, Lev^R, MEM^R, CAZ^R) was 2 mg/L and the MIC (Klebsiella pneumoniae [1]; K. pneumoniae MMX 4683, KPC-2, Lev^R, MEM^R, CAZ^R) was 1 mg/L. The MIC (Klebsiella pneumoniae [1]; K. pneumoniae MMX 4684, ESBL, MEM^R) was 2 mg/L, the MIC (Klebsiella pneumoniae [1]; K. pneumoniae MMX 4685, ESBL, Lev^R, MEM^R, CAZ^R) was 1 mg/L and the MIC (Klebsiella pneumoniae [1]; K. pneumoniae MMX 4694, KPC-3, Lev^R, MEM^R, CAZ^R) was 1 mg/L. It also gave an MIC (Klebsiella pneumoniae [1]; K. pneumoniae MMX 5979, NDM-1, Lev^R, MEM^R, CAZ^R, Gm^R) of 1 mg/L, an MIC (Enterobacter cloacae) of 2 mg/L and an MIC (Pseudomonas aeruginosa [2]; ATCC27853, P. aeruginosa MMX 103 (ATCC 27853), QC) of 1 mg/L. For the same compound, the MIC (Pseudomonas aeruginosa [2]; P. aeruginosa MMX 1381, MDR, Lev^R, Cip^R, MEM^R, CAZ^R) was 1 mg/L, the MIC (Pseudomonas aeruginosa [2]; P. aeruginosa MMX 2562, MDR, Lev^R, Cip^R, MEM^R, CAZ^R) was 2 mg/L and the MIC (Pseudomonas aeruginosa [2]; P. aeruginosa MMX 3991, MDR, Lev^R, Cip^R, MEM^R, CAZ^R) was 2 mg/L. The MIC (Pseudomonas aeruginosa [2]; P. aeruginosa MMX 4654, IMP-7, Lev^R, Cip^R, MEM^R, CAZ^R) was 2 mg/L, the MIC (Pseudomonas aeruginosa [2]; P. aeruginosa MMX 4697, VIM-2, Lev^R, Cip^R, MEM^R, CAZ^R) was 2 mg/L and the MIC (Acinetobacter baumannii [3]; A. baumannii MMX 2592, MDR, Lev^R, Cip^R, MEM^R, CAZ^R, Gm^R) was 0.5 mg/L. For the same compound, the MIC (Acinetobacter baumannii [3]; A. baumannii MMX 2593, MDR, Lev^R, Cip^R, MEM^R, CAZ^R, Gm^R) was 0.5 mg/L, the MIC (Acinetobacter baumannii [3]; A. baumannii MMX 3372, MDR, Cip^R, MEM^I, CAZ^I) was 1 mg/L and the MIC (Acinetobacter baumannii [3]; A. baumannii MMX 3373, Sensitive) was 0.5 mg/L. It also gave an MIC (Acinetobacter baumannii [3]; NCTC13304, A. baumannii MMX 4651 (NCTC 13304), MDR, OXA-27, Lev^R, Cip^R, MEM^R, CAZ^R, Gm^I) of 0.5 mg/L, an MIC (E. faecalis; E. faecalis MMX 8960) of 0.5 mg/L and an MIC (E. faecalis; E. faecalis MMX 8961) of 0.25 mg/L. It also gave an MIC (E. faecalis; E. faecalis MMX 8962) of 0.25 mg/L, an MIC (S. pneumoniae; ATCC49619, S. pneumoniae MMX 6837 (ATCC 49619), QC) of 0.5 mg/L and an MIC (S. pneumoniae; S. pneumoniae MMX 880, Lev^R SXT^R CC^R Ery^R Pen^R) of 0.5 mg/L. The MIC (S. pneumoniae; S. pneumoniae MMX 937, Mem^R SXT^R CC^R Ery^R Pen^R) was 8 mg/L, the MIC (S. pneumoniae; S. pneumoniae MMX 3959, CC^R Ery^R) was 1 mg/L and the MIC (S. pneumoniae; S. pneumoniae MMX 5440, Mem^R SXT^R CC^R Ery^R Pen^R) was 0.5 mg/L. The MIC (S. pneumoniae; S. pneumoniae MMX 5445, Mem^R SXT^R CC^R Ery^R Pen^R) was 0.5 mg/L, the MIC (S. pneumoniae; S. pneumoniae MMX 8133, Mem^R SXT^R CC^R Ery^R Pen^R) was 0.5 mg/L and the MIC (S. pneumoniae; read-out: MIC values, pneumococci incl. multi-drug resistant) was 0.5 to 8 mg/L. The MIC (S. pyogenes; S. pyogenes MMX 3068, Ery^R) was 0.12 mg/L, the MIC (S. pyogenes; S. pyogenes MMX 3820, ERY^R CLI^R) was 0.5 mg/L and the MIC (S. pyogenes; S. pyogenes MMX 3919, ERY^R) was 0.03 mg/L. For the same compound, the MIC (S. pyogenes; S. pyogenes MMX 3929, ERY^R CC^R) was 0.5 mg/L, the MIC (S. pyogenes; S. pyogenes MMX 5091, ERY^R CC^R) was 1 mg/L and the MIC (S. agalactiae; S. agalactiae MMX 3741, ERY^R CC^R) was 0.25 mg/L. For the same compound, the MIC (S. agalactiae; S. agalactiae MMX 3743, ERY^R CC^R) was 0.25 mg/L, the MIC (S. agalactiae; S. agalactiae MMX 4077, ERY^R CC^R) was 0.25 mg/L and the MIC (S. agalactiae; S. agalactiae MMX 4079, ERY^R CC^R Pen^R MEM^R) was 0.5 mg/L. The MIC (S. agalactiae; S. agalactiae MMX 4086, ERY^R CC^R) was 0.25 mg/L, the MIC (Klebsiella pneumoniae [4]; ATCCBAA1705, K. pneumoniae ATCC BAA-1705, ESBL/KPC) was 1 mg/L and the MIC (Klebsiella pneumoniae [4]; ATCCBAA1705, K. pneumoniae ATCC BAA-1705, QC organism (Table 102)) was 1 mg/L. It also gave an MIC (Klebsiella pneumoniae [4]; K. pneumoniae CDC 112, KPC) of 2 mg/L, an MIC (Klebsiella pneumoniae [4]; K. pneumoniae CDC 113, ESBL/KPC) of 1 mg/L and an MIC (Klebsiella pneumoniae [4]; K. pneumoniae CDC 115, ESBL/KPC) of 2 mg/L. The MIC (Klebsiella pneumoniae [4]; K. pneumoniae CDC 120, ESBL/KPC) was 2 mg/L, the MIC (Klebsiella pneumoniae [4]; K. pneumoniae CDC 126, ESBL/KPC) was 2 mg/L and the MIC (Klebsiella pneumoniae [4]; K. pneumoniae CDC 129, ESBL/KPC) was 4 mg/L. The MIC (Klebsiella pneumoniae [4]; K. pneumoniae CDC 135, ESBL/VIM) was 4 mg/L, the MIC (Klebsiella pneumoniae [4]; K. pneumoniae CDC 138, ESBL/NDM) was 2 mg/L and the MIC (Klebsiella pneumoniae [4]; K. pneumoniae CDC 158, ESBL/NDM/OXA) was 2 mg/L. For the same compound, the MIC (Klebsiella pneumoniae [4]; K. pneumoniae MMX 9029, ESBL) was 2 mg/L, the MIC (Pseudomonas aeruginosa [5]; ATCC27853, P. aeruginosa ATCC 27853, QC organism) was 1 mg/L and the MIC (Pseudomonas aeruginosa [5]; P. aeruginosa CDC 230, VIM/OXA) was 2 mg/L. It also gave an MIC (Pseudomonas aeruginosa [5]; P. aeruginosa CDC 231, KPC/OXA) of 2 mg/L, an MIC (Pseudomonas aeruginosa [5]; P. aeruginosa CDC 241, IMP/OXA) of 8 mg/L and an MIC (Pseudomonas aeruginosa [5]; P. aeruginosa CDC 246, NDM/OXA) of 2 mg/L. For the same compound, the MIC (Pseudomonas aeruginosa [5]; P. aeruginosa CDC 250, NDM/OXA) was 2 mg/L, the MIC (Pseudomonas aeruginosa [5]; P. aeruginosa CDC 356, KPC) was 1 mg/L and the MIC (Pseudomonas aeruginosa [5]; P. aeruginosa CDC 439, IMP) was 1 mg/L. The MIC (Pseudomonas aeruginosa [5]; P. aeruginosa CDC 444, VIM) was 1 mg/L, the MIC (Pseudomonas aeruginosa [5]; P. aeruginosa CDC 457, VIM) was 2 mg/L and the MIC (Pseudomonas aeruginosa [5]; P. aeruginosa CDC 516, KPC/AmpC) was 1 mg/L. For the same compound, the MIC (Pseudomonas aeruginosa [5]; P. aeruginosa CDC 518, KPC/AmpC) was 1 mg/L, the MIC (Acinetobacter baumannii [6]; A. baumannii CDC 273, ESBL/OXA) was 0.5 mg/L and the MIC (Acinetobacter baumannii [6]; A. baumannii CDC 274, ESBL/OXA) was 0.5 mg/L. For the same compound, the MIC (Acinetobacter baumannii [6]; A. baumannii CDC 275, ESBL/OXA) was 0.5 mg/L, the MIC (Acinetobacter baumannii [6]; A. baumannii CDC 277, ESBL/OXA) was 1 mg/L and the MIC (Acinetobacter baumannii [6]; A. baumannii CDC 284, ESBL/OXA) was 1 mg/L. For the same compound, the MIC (Acinetobacter baumannii [6]; A. baumannii CDC 307, OXA) was 0.5 mg/L, the MIC (Acinetobacter baumannii [6]; A. baumannii CDC 308, ESBL/OXA) was 0.5 mg/L and the MIC (Acinetobacter baumannii [6]; A. baumannii CDC 311, OXA) was 0.5 mg/L. The MIC (Acinetobacter baumannii [6]; A. baumannii CDC 312, OXA) was 0.5 mg/L, the MIC (Acinetobacter baumannii [6]; A. baumannii CDC 313, ESBL/OXA) was 0.5 mg/L and the MIC (Acinetobacter baumannii [6]; NCTC13304, A. baumannii NCTC 13304, OXA) was 0.5 mg/L. For the same compound, the “bactericidal activity against PA01” value ([7]; 0.1 μg/mL) was “not bactericidal”, the “effect of CF patient sputum on bactericidal activity” value ([7]; 10% CF patient sputum) was “partially inhibited” and the “time to sterilization below the limit of detection” value ([7]; with and without sputum) was no more than 5 h.
